Source: US10112941B2, “Tricyclic compounds as anticancer agents” (BRISTOL-MYERS SQUIBB COMPANY, priority 2013, dated 2018)

Legend:
[1] = tested on: H187 Human Small Cell Carcinoma; assay: Human tumor xenograft model in mice, H187; type: in vivo; conditions: QD × 7
From the text: (§1) All rodents were obtained from Jackson Laboratory. (Bar Harbor, Me.), and maintained in an ammonia-free environment in a defined and pathogen-free colony. All mice were quarantined approximately 1 week prior to their use for tumor propagation and drug efficacy testing. Mice were fed food and water ad libitum. The animal care program of Bristol-Myers Squibb Pharmaceutical Research Institute is fully accredited by the American Association for Accreditation of Laboratory Animal Care (AAALAC). All experiments were performed in accordance with Bristol-Myers Squibb (BMS) animal test methods and guidelines.
(§2) Tumor xenografts were grown and maintained subcutaneously (SC) in NSG (NOD scid IL2 receptor gamma chain knockout) mice (Jackson Lab). Tumors were propagated as subcutaneous transplants using tumor fragments obtained from donor mice.
(§3) The required numbers of animals needed to detect a meaningful response were pooled at the start of the experiment and each was given bilateral subcutaneous implants of two tumor fragments (˜20 mg) with a 13-gauge trocar. Tumors were allowed to grow to the pre-determined size window (tumors outside the range were excluded) and animals were evenly distributed to various treatment and control groups. There were typically 6-8 mice per treatment and control groups, consisting of 10-12 tumors. Treatment of each animal was based on individual body weight. Treated animals were checked daily for treatment related toxicity/mortality. Each group of animals was weighed before the initiation of treatment (Wt1) and then again following the last treatment dose (Wt2). The difference in body weight (Wt2−Wt1) provides a measure of treatment-related toxicity.
(§4) Tumor response was determined by measurement of tumors with a caliper twice a week, until the tumors reached a predetermined “target” size of 0.5 gm or 1 gm depending on the tumor type. Tumor weights (mg) were estimated from the formula: Tumor weight=(length×width^2)÷2
(§5) Tumor response criteria are expressed in terms of tumor growth inhibition (% TGI). Tumor growth delay is defined as the difference in time (days) required for the treated tumors (T) to reach a predetermined target size compared to those of the control group (C). For this purpose, the tumor weight of a group is expressed as medium tumor weight (MTW).
(§6) [formula] where, • Ct=Median control tumor size at end of treatment • C0=Median control tumor size at treatment initiation • Tt=Median tumor size of treated group at end of treatment • T0=Median tumor size of treated group at treatment initiation
(§7) Tumor response was also expressed in terms of tumor growth delay and expressed as log cell kill (LCK value), defined as the difference in time (days) required for the treated tumors (T) to reach a predetermined target size compared to those of the control group (C).
(§8) Whenever possible, antitumor activity was determined at a range of dose levels up to the maximum tolerated dose (MTD) which is defined as the dose level immediately […] which excessive toxicity (i.e. more than one death) occurred. When death occurred, the day of death was recorded. Treated mice dying prior to having their tumors reach target size were considered to have died from drug toxicity. No control mice died bearing tumors less than target size. Treatment groups with more than one death caused by drug toxicity were considered to have had excessively toxic treatments and their data were not included in the evaluation of a compound's antitumor efficacy.
(§9) For administration of BET inhibitors to rodents, compounds were dissolved in […]/10% TPGS/10% Ethanol. BET inhibitors were typically administered orally on a schedule of QD×7 or QD×10 (5 day-on-2 day-off), although other schedules had also been evaluated and shown to be efficacious

BRD4 = BRD4 (Homo sapiens, UniProt O60885); assay: Time Resolved Fluorescence Resonance Energy Transfer (TR-FRET) binding assay, BRD4; conditions: one of the FRET assays described; read-out: FRET BRD4 IC50
[2] = tested on: JJN3R multiple myeloma cell line; assay: Human tumor xenograft model in mice, JJN3R; type: in vivo; conditions: QD × 7
From the text: as §1, §2, §3, §4, §5, §6, §7, §8, §9

Cc1nnn(C)c1-c1cnc2c3ccc(C(C)(C)O)c(F)c3n(C(c3ccccc3)C3CCOCC3)c2c1 (single isomer, unassigned) [Example 70, 2-[3-(dimethyl-1H-1,2,3-triazol-5-yl)-6-fluoro-5-[oxan-4-yl(phenyl)methyl]-5H-pyrido[3,2-b]indol-7-yl]propan-2-ol]
% TGI ([1]; H187, 1 mg/kg): 82.0%
LCK ([1]; H187, 1 mg/kg): 0.7
% TGI ([1]; H187, 3 mg/kg): 90.0%
LCK ([1]; H187, 3 mg/kg): 1.0
% TGI ([1]; H187, 10 mg/kg): 96.0%
LCK ([1]; H187, 10 mg/kg): 1.6
IC50 (BRD4): < 5 nM

[2H]C([2H])([2H])c1nnn(C)c1-c1cnc2c3cc(F)c(C(C)(C)O)cc3n([C@H](c3ccccc3)C3CCOCC3)c2c1 [Example 279, 2-{8-Fluoro-3-[4-(^2H3)methyl-1-methyl-1H-1,2,3-triazol-5-yl]-5-[(S)-oxan-4-yl(phenyl)methyl]-5H-pyrido[3,2-b]indol-7-yl}propan-2-ol]
LCK ([2]; 1 mg/kg): 0.6
LCK ([2]; 4 mg/kg): >1.4
IC50 (BRD4): < 5 nM

Cc1nnn(C)c1-c1cnc2c3ccc([C@](C)(O)C4CC4)c(F)c3n([C@H](c3ccccc3)C3CCOCC3)c2c1 [Example 432, (1R)-1-cyclopropyl-1-[3-(dimethyl-1H-1,2,3-triazol-5-yl)-6-fluoro-5-[(S)-oxan-4-yl(phenyl)methyl]-5H-pyrido[3,2-b]indol-7-yl]ethan-1-ol]
LCK ([2]; 1 mg/kg): 0.4
LCK ([2]; 4 mg/kg): 1.4
IC50 (BRD4): < 5 nM
